The test system of assay [1] is E. coli JW5503 ApmR. In words: MIC against transformant carrying AAC(3)-IV. The format is cell-based. On the procedure: (§1) The determination of the MIC values was performed on five strains from the working collection of MSU. E. coli JW5503 [25], which lacked a kanamycin resistance cassette that had been removed as per the method outlined in [26], and a strain derived from this strain through in vitro selection with kanamycin. […] Strains containing AG-modifying enzymes were obtained through the transformation of E. coli JW5503 with plasmids that carried cassettes of resistance, namely pCRISPomyces-2–AAC(3)-IV (Addgene #61737), pdualrep2–APH(3′)-II [27] and pt67–ANT(3″). The MIC determination was performed as described for JW5503 in [19].

For assay [2], the system named is E. coli JW5503 kanS. Nature of the assay: MIC against E. coli JW5503 parent strain. In kind it is cell-based. On the procedure: as §1
Assay [3] concerns E. coli JW5503 with pJC27 β-galactosidase codon 537 reporter. In words: Translation accuracy using β-galactosidase reporters. In kind it is cell-based. Conditions: 0.1 μL of 50 mg/mL, 37 °C, 18 h, codon 537 GAC/GGG reporters. On the procedure: To evaluate translation accuracy in the presence of antibiotics, E. coli JW5503 (kanamycin resistance cassette removed as per) was transformed with pJC27 plasmids. […] The synthesis of active β-galactosidase depends on translation errors occurring (when codons GAC and GGG are read as GAA). Petri dishes (9 cm) containing 20 mL of solid LB agar (1.5%), supplemented with chloramphenicol (11.3 μg/mL) and X-Gal (80 μg/mL), were prepared. A secondary soft-agar layer comprising 3.5 mL of LB agar (0.6%) supplemented with 11.3 μg/mL chloramphenicol and 0.5 mL of liquid culture (A600~1.0) was added and allowed to solidify. Antibiotics were applied to the plates in 0.1 μL aliquots at a concentration of 50 mg/mL for tobramycin, streptomycin, kanamycin, and apramycin, and for 5a, 5b, 8a, and 8b. The plates were then incubated at 37 °C for 18 h. […] The results were documented using a Samsung Galaxy Tab A71 camera.

Assay [4] deals with E. coli JW5503 SmR. Nature of the assay: MIC against transformant carrying ANT(3″). The format is cell-based. The procedure: as §1
The subject of assay [5] is K. pneumoniae MAR14-3395. In words: MIC, MDR clinical isolate. The format is cell-based. The following applies: K. pneumoniae MAR14-3395, MDR clinical isolate (NDM-1 + OXA-244). The text has this: (§2) The microbial strains used in this study were obtained from the collection of the Gause Institute of New Antibiotics. The control strains included in the analysis were S. aureus ATCC 29213, E. coli ATCC 25922, P. aeruginosa ATCC 27853, M. smegmatis ATCC 607. Clinical isolates E. coli MAR17-1350, K. pneumoniae APEX-5, K. pneumoniae MAR14-3395, and K. pneumoniae MAR18-1752 with multidrug resistance, including resistance to aminoglycosides were kindly provided by the Research Institute of Antimicrobial Chemotherapy (RIAC) of the Smolensk State Medical University, Smolensk. The microbial cultures were stored at −75 °C in trypticase soy broth (Becton, Dickinson, France) containing 10–15% glycerol. Storage was carried out in accordance with CLSI guidelines. Prior to experimentation, the bacterial strains were revived from cryopreservation by inoculating them onto trypticase soy agar (Becton, Dickinson, France) and incubating at (36 ± 1) °C for 16–24 h. Individual morphologically homogeneous colonies were then suspended in sterile physiological saline, and the turbidity of the suspension was adjusted to 0.5 McFarland units using a DEN-1 spectrophotometer (Biosan, Riga, Latvia), which corresponds to a concentration of 1.5 × 10^8 CFU/mL.
(§3) The samples were dissolved in sterile distilled water, depending on the physicochemical properties of the compounds under investigation, to a concentration of 10,000 µg/mL. Working solutions were then prepared by serial dilution, resulting in concentrations ranging from 64 µg/mL to 0.125 µg/mL.
(§4) Activity was evaluated by determining the minimum inhibitory concentration (MIC) values using the microdilution method in Mueller–Hinton Broth (Beckton and Dickinson, Le Pont-de-Claix, France), in accordance with the standard procedure for assessing the antimicrobial susceptibility of microorganisms.
(§5) The analysis was conducted in 96-well microtiter plates (Medpolymer, Saint Petersburg, Russia). The bacterial inoculum was introduced within 15 min of preparation. MIC values were determined after incubation for 15–18 h at (36 ± 1) °C. Microbial growth in the presence of the tested compounds was compared to the growth control (without exposure to the test samples). The MIC was defined as the lowest concentration at which visible microbial growth was inhibited.
(§6) To ensure the accuracy of the results, the control antibiotics kanamycin A, gentamycin, and tobramycin (Abcr GmbH, Karlsruhe, Germany) were included, along with standard reference strains: E. coli ATCC 25922. The MIC values for kanamycin A were determined as follows: E. coli ATCC 25922—1–4 µg/mL [22]. For gentamycin, the MIC values were E. coli ATCC 25922–0.25–1 µg/mL [23]. For tobramycin, the MIC values were E. coli ATCC 25922–0.25–1 µg/mL [23]. The MIC values of the reference strains were required to fall within the acceptable ranges specified in [24], provided that standard assay conditions were maintained.

The test system of assay [6] is K. pneumoniae APEX-5. Nature of the assay: MIC, MDR clinical isolate. The format is cell-based. The following applies: K. pneumoniae APEX-5, MDR clinical isolate (NDM-16).
From the text: as §2, §3, §4, §5, §6

Assay [7] deals with E. coli MAR17-1350. Nature of the assay: MIC, MDR clinical isolate. The following applies: E. coli MAR17-1350, MDR clinical isolate (NDM-5). The format is cell-based.
From the text: as §2, §3, §4, §5, §6

Assay [8] deals with K. pneumoniae MAR18-1752. Nature of the assay: MIC, MDR clinical isolate. The format is cell-based. Conditions: K. pneumoniae MAR18-1752, MDR clinical isolate (NDM-1).
From the text: as §2, §3, §4, §5, §6

Assay [9] concerns E. coli ATCC 25922. Nature of the assay: MIC, broth microdilution. The format is cell-based, Escherichia coli.
From the text: as §2, §3, §4, §5, §6
In general terms: Broth dilution looks for growth in wells or tubes with falling amounts of substance.

Assay [10] concerns E. coli JW5503 KanR. In words: MIC against transformant carrying APH(3′)-II. In kind it is cell-based. On the procedure:
as §1

The test system of assay [11] is E. coli JW5503 EF-G P610T. Nature of the assay: MIC against aminoglycoside-resistant EF-G mutant. The format is cell-based. The procedure:
as §1

Assay [12] concerns M. smegmatis ATCC 607. Nature of the assay: MIC, broth microdilution. In kind it is cell-based, Mycobacterium smegmatis. Conditions: Mycolicibacterium smegmatis, ATCC607, Table 1.
From the text: as §2, §3, §4, §5, §6

Assay [13] has as its system S. aureus ATCC 29213. Nature of the assay: MIC, broth microdilution. In kind it is cell-based. The following applies: Staphylococcus aureus, ATCC29213, Table 1.
From the text: as §2, §3, §4, §5, §6

The subject of assay [14] is P. aeruginosa ATCC 27853. Nature of the assay: MIC, broth microdilution. In kind it is cell-based. Conditions: Pseudomonas aeruginosa, ATCC27853, Table 1.
From the text: as §2, §3, §4, §5, §6

The test system of assay [15] is HEK293T human embryonic kidney cell line. In words: Cytotoxicity, MTT test. In kind it is cell-based. The following applies: HEK-293T, 72 h, 2-250 µg/mL, read-out: IC50, viability of HEK293T cells. On the procedure:
The MTT test was performed in order to evaluate the effect of the compounds on eukaryotic cells’ survivability. Compounds 5a,b, 8a,b, and apramycin, as the reference drug, were tested on HEK293T human embryonic kidney cell line (ATCC). Compounds 5a,b, 8a,b, and apramycin were prepared as water solutions with a 50 mg/mL concentration. The HEK293T cell line was cultivated in DMEM/F-12 medium (Paneco LLC, Moscow, Russia) containing 10% FBS, 50 µg/mL penicillin, and 50 µg/mL streptomycin (Thermo Fisher Scientific, USA) at 37 °C in 5% CO2. Triplicates on 96-well plates were used, and 2500 HEK293T cells were seeded in 140 µL of DMEM/F-12 medium in each well during day one. The next day, compounds in twofold successive dilutions were added to these plates (concentrations in wells ranged between 2 and 250 µg/mL for 5a, 5b, and 8a, 8b). Plates were incubated for 72 h at 37 °C in 5% CO2. Afterwards, 0.5 mg/mL of the MTT reagent (Paneco LLC, Moscow, Russia) was added to each well. After 2 h of incubation, the media with MTT was replaced with 140 µL of DMSO, and all plates were placed on a shaker for 10 min for formazan to dissolve. Finally, the absorbance at a 555 nm wavelength was measured on all plates via the plate reader Victor X5 (PerkinElmer, Waltham, MA, USA). The data were then normalized, and dose–response curves and IC50 were calculated by means of GraphPad Prism version 8.0.2. (GraphPad Software, Inc., San Diego, CA, USA).

The test system of assay [16] is E. coli ATCC 25922. Conditions: E. coli ATCC 25922, reference strain quality control; cited from earlier work.
Where [17] appears, read: Klebsiella pneumoniae, MAR143395, read-out: MIC.
Setting [18] is: Klebsiella pneumoniae, APEX5, read-out: MIC.
Setting [19] is: Escherichia coli, MAR171350, read-out: MIC.
The mark [20] stands for this setting: Klebsiella pneumoniae, MAR181752, read-out: MIC.

Converted amounts (≈) assume the structure as drawn. Where two headings read alike, the source gives them in different places.

The term MIC denotes the lowest concentration found to suppress growth. As a reminder, the IC50 is the concentration that inhibits the measured activity by half. Regarding `CN[C@@H]1[C@@H](O[C@H]2O[C@H](CO)[C@@H](N)[C@H](O)[C@H]2O)OC2C[C@@H](N)[C@@H](O[C@H]3[C@H](O)[C@@H](O)[C@H](N)C[C@@H]3N)OC2[C@@H]1O` (stereo partly drawn) [Apramycin (1), apramycin], the minimum inhibitory concentration (MIC) was above 256 µg/mL in [1] (Escherichia coli, JW5503APMR); 8 µg/mL (≈ 14.8 µM) in [2] (Escherichia coli, JW5503KANS); 8 µg/mL (≈ 14.8 µM) in assay [4] (Escherichia coli, JW5503SMR); 1 µg/mL in assay [5] (setting [17]); 1 µg/mL (≈ 1.85 µM) in assay [6] (setting [18]); 4 µg/mL (≈ 7.41 µM) in assay [7] (setting [19]). In addition, the MIC in assay [8] (setting [20]) stood at 1 µg/mL (≈ 1.85 µM); in [9] (Escherichia coli, ATCC25922, Table 1, read-out: MIC), 1 µg/mL (≈ 1.85 µM); in assay [10] (Escherichia coli, JW5503KANR), 4 µg/mL (≈ 7.41 µM); in assay [11] (Escherichia coli), 64 µg/mL (≈ 119 µM); in assay [12], 0.125 µg/mL (≈ 0.232 µM); in assay [13], 1 µg/mL (≈ 1.85 µM). Also, the minimal inhibitory concentration (MIC) in assay [14] came out at 2 µg/mL (≈ 3.71 µM). Also, in assay [3], the “induction of translation errors (blue staining at edge of inhibition zone)” value is given as “blue staining”. Further, the IC50 in assay [15] is above 250 µg/mL.
For `[H]/N=C(/N)N[C@H]1[C@H](O)[C@@H](O)[C@H](O[C@@H]2O[C@@H](C)[C@](O)(C=O)[C@H]2O[C@@H]2O[C@@H](CO)[C@H](O)[C@@H](O)[C@@H]2NC)[C@@H](N/C(N)=N\[H])[C@@H]1O` [Streptomycin, streptomycin, reference compound], the MIC was 4 µg/mL (≈ 6.88 µM) in assay [1] (Escherichia coli, JW5503APMR); 4 µg/mL (≈ 6.88 µM) in assay [2] (Escherichia coli, JW5503KANS); above 256 µg/mL in assay [4] (Escherichia coli, JW5503SMR); 4 µg/mL (≈ 6.88 µM) in [10] (Escherichia coli, JW5503KANR); 8 µg/mL (≈ 13.8 µM) in [11] (Escherichia coli).
On to `NC[C@H]1O[C@H](O[C@H]2[C@H](O)[C@@H](O[C@H]3O[C@H](CO)[C@@H](O)[C@H](N)[C@H]3O)[C@H](N)C[C@@H]2N)[C@H](N)C[C@@H]1O` [Tobramycin, tobramycin, reference compound], for which the MIC is above 256 µg/mL in [1] (Escherichia coli, JW5503APMR); 2 µg/mL (≈ 4.28 µM) in assay [2] (Escherichia coli, JW5503KANS); 4 µg/mL (≈ 8.56 µM) in assay [4] (Escherichia coli, JW5503SMR); above 128 µg/mL in [5] (setting [17]); 32 µg/mL (≈ 68.4 µM) in assay [6] (setting [18]); above 128 µg/mL in assay [7] (setting [19]). Also, the minimum inhibitory concentration (MIC) in assay [8] (setting [20]) was above 128 µg/mL; in [9] (Escherichia coli, ATCC25922, Table 2, read-out: MIC) it was 0.5 µg/mL (≈ 1.07 µM); in assay [10] (Escherichia coli, JW5503KANR), 2 µg/mL (≈ 4.28 µM); in assay [11] (Escherichia coli), 16 µg/mL (≈ 34.2 µM). Also, in [16], the “MIC, control antibiotic range” value was 0.25 to 1 µg/mL.
In the case of kanamycin A [reference compound], the MIC in [1] (E. coli JW5503 ApmR, AAC(3)-IV on plasmid) was 32 µg/mL; in assay [2] (E. coli JW5503 kanS (parent strain)), 4 µg/mL; in assay [4] (E. coli JW5503 SmR, ANT(3″) on plasmid) it was 8 µg/mL; in assay [5], above 128 µg/mL; in assay [6] it was above 128 µg/mL; in assay [7], above 128 µg/mL. Also, the minimum inhibitory concentration (MIC) in assay [8] was above 128 µg/mL; in assay [9] (Table 2), 2 µg/mL; in assay [10] (E. coli JW5503 KanR, APH(3′)-II on plasmid), above 256 µg/mL; in assay [11] (E. coli JW5503 EF-G P610T (fusA mutant)) it was 64 µg/mL. In assay [16], the “MIC, control antibiotic range” value is 1 to 4 µg/mL.

These data come from paper PMC12736951, “Design, Synthesis, and Biological Evaluation of 6″-Modified Apramycin Derivatives to Overcome Aminoglycoside Resistance” (Pharmaceutics, 2025).
